Where “and” joins values, the source holds several entries; their conditions need not be identical. Equal entries are not always repeated. Where two headings read alike, the source gives them in different places.
Assays:
[1] = In vivo corticosterone induced depression model: effect on body weight; design: species or system mouse (male C57); details: 21 days; for Weight (g) ± SD: A1 20 mg/kg oral, fluoxetine 18 mg/kg
Procedure: (§1) In vivo efficacy (ameliorates behavioral despair) of A1 in corticosterone induced model of stress (J. Neurochem., 2018 146, 722 734). […] A1 (20 mg/kg, oral) dissolved in normal saline was given for 3 consecutive weeks following corticosteroid stress. The sucrose preference test was employed, tail suspension test, and forced swim test to evaluate behavioral distress. We noticed that A1 can resurrect mice in stressful situations. […]

p TrkB 816 = experiment: Survival pathway protein expression by western blotting in SHSY5Y; assay type: cell-based, human
Procedure: (§2) Here, A1 was tested to find its role in eliciting survival pathway proteins in differentiated human neuroblastoma cells in concentration and time dependent manner.
(§3) To investigate the effect of A1 on the survival proteins, SHSY5Y cell cultures were treated with different concentrations for 6 hrs and analyzed for the expression of survival proteins, including p-Erk 44/42, p-AKT 473, Anti BDNF, and p TrkB 816 and p TrKB 515 by western blotting.

p-Erk 44/42 = experiment: as above; assay type: cell-based, human; details: for Relative Protein Expression p ERK 44/42: 6 hrs
Procedure: as §2, §3

p TrkB 515 = experiment: as above; assay type: cell-based, human
Procedure: as §2, §3

Anti BDNF = experiment: as above; assay type: cell-based, human
Procedure: as §2, §3

[2] = Cell viability assay in macrophage RAW264.7 cells (MTT); assay type: cell-based; details: mouse, read-out: % cell viability ± SD
Procedure: RAW264.7 cells were seeded in 96-well cell culture plates at a density of 1×10^4 cells per well and incubated overnight at 37° C. with 5% CO2. Next day, the cells were treated with CBD or its derivatives at 5 μM and/or 10 μM concentration for 24 hrs. The MTT dye (2.5 mg/ml, 20 μL) was added to each well 4 hrs before termination (Molecules. 2022, 27, 8068). After 4 hrs of incubation with MTT, the supernatant was discarded, and the formazan crystals were dissolved by adding 100 μL DMSO. The absorbance was recorded at 540 nm on microplate reader (Tecan Infinite Pro).

TrkB stable cells SHSY5Y = experiment: Cytoprotective effect in TrkB stable cells SHSY5Y, 96 hrs; assay type: cell-based, human; details: 96 hrs; for viability at 20 µM: Homo sapiens, SH-SY5Y, 96 h, read-out: % Cell viability ± SD
Procedure: In another experiment, the cytoprotective effect of A1 as well as parent molecule B1 was determined in TrkB stable cells SHSY5Y.

[3] = tested on: differentiated SHSY5Y cell cultures; experiment: Neuroprotective potential in differentiated SHSY5Y after 96 hrs, concentration series with and without corticosterone; assay type: cell-based, human
Text: Furthermore, A1 intervention in presence of corticosterone evidenced neuroprotective effect against corticosterone induced impairment and cell death.

depression mice model [4] = experiment: In vivo corticosterone induced depression model: Tail Suspension Test (TST); design: species or system mouse (male C57); details: A1 20 mg/kg, fluoxetine 18 mg/kg
Procedure: A1 (20 mg/kg, oral) dissolved in normal saline was given for 3 consecutive weeks following corticosteroid stress. The sucrose preference test was employed, tail suspension test, and forced swim test to evaluate behavioral distress.
Tail Suspension Test (TST) is a behavioral test employed to assess perturbations expected to influence depression like phenotypes. TST is grounded on the reflection that the extent of immobility is allied with depressing phenotype of mice overturned by antidepressants. Mice were positioned 2 cm from their tail tips and 5 cm above the ground suspending the tails using adhesive tape for the free movement (Acta Neuropathol Commun., 2016, 4(1), 108).
The contemporary immobility was alluded to as interruption in motion, where a blind assessor evaluates the disappointed aspect of display before scoring it.

depression mice model [5] = experiment: In vivo corticosterone induced depression model: sucrose preference test; design: species or system mouse (male C57); details: for % Sucrose consumption (ml) ± SD: 2% sucrose, 21 days
Procedure: as §1
Sucrose consumption was employed to evaluate anhedonia, a core hallmark of depression in mice. The animals were allowed unfettered access to both identical bottles, one containing water while the other contained a 2% solution of sucrose, for 21 days.
The below equation was later employed to determine water and sugar consumed by mice:
Sucrose Preference=Sucrose consumed[…]/Total fluid intake.

[6] = tested on: nitric oxide (NO) production in RAW264.7 macrophages; experiment: In vitro anti-inflammatory activity: nitric oxide production (Griess) in LPS-exposed RAW264.7 macrophages; assay type: cell-based, mouse; details: Mus musculus, RAW264.7, LPS 24 hrs, read-out: % NO Inhibition ± SD
Procedure: Measurement of Nitric oxide: RAW264.7 macrophages were seeded in 96-well plates with a density of 0.5×10^5 cells/well and incubated overnight at 37° C. in a 5% CO2 atmosphere. The cells were treated with different concentration of CBD and its analogues and exposed to LPS for 24 hrs. For nitric oxide (NO) determination, the cell culture supernatant was taken and mixed with equal volume of Griess reagent in another 96 well plate at room temperature (Biomed Pharmacother., 2017, 92, 175-186). The absorbance was measured at 540 nm. The final calculations were determined on a NaNO2 standard curve.

[7] = different concentrations of A1, 6 hrs

Structure (SMILES): C=C(C)[C@@H]1CCC(C)=C[C@H]1c1c(O)cc(CCCCC)c(CN2CCOCC2)c1O [A1, 2′-(morpholin-1-ylmethyl)-cannabidiol]
- toxicity / weight fluctuations (in words) ([1]; 20 mg/kg oral): no discernible toxicity
- Weight (g) ± SD ([1]; with Cort. 35 μg/ml): 36.75 ± 3.88 g
- Weight (g) ± SD ([1]; without Cort.): 42.88 ± 2.69 g
- Relative Protein Expression p TrkB 816 (p TrkB 816; A1 5 μM, 6 hrs): 3.11
- Relative Protein Expression p TrkB 816 (p TrkB 816; A1 10 μM, 6 hrs): 2.91
- Relative Protein Expression p TrkB 816 (p TrkB 816; A1 + Cort., 6 hr): 23.0422
- Relative Protein Expression p TrkB 816 (p TrkB 816; A1/Cort., A1 5 μM, 6 hrs): 1.41
- Relative Protein Expression p TrkB 816 (p TrkB 816; A1/Cort., A1 10 μM, 6 hrs): 2.89
- expression of p TrkB 816 (in words) (p TrkB 816; [7]): increased significantly
- Relative Protein Expression p ERK 44/42 (p-Erk 44/42; A1 5 μM): 4.51
- Relative Protein Expression p ERK 44/42 (p-Erk 44/42; A1 10 μM): 8.80
- Relative Protein Expression p ERK 44/42 (p-Erk 44/42; A1/Cort., A1 5 μM): 3.70
- Relative Protein Expression p ERK 44/42 (p-Erk 44/42; A1/Cort., A1 10 μM): 5.05
- expression of p-Erk 44/42 (in words) (p-Erk 44/42; [7]): increased significantly
- Relative Protein Expression p TrkB 515 (p TrkB 515; A1 10 μM, 6 hrs): 1.75
- Relative Protein Expression p TrkB 515 (p TrkB 515; A1 + Cort., 6 hr): 6.675
- Relative Protein Expression p TrkB 515 (p TrkB 515; A1/Cort., A1 5 μM, 6 hrs): 0.07
- Relative Protein Expression p TrkB 515 (p TrkB 515; A1/Cort., A1 10 μM, 6 hrs): 1.30
- expression of p TrkB 515 (in words) (p TrkB 515; [7]): increased significantly except for the expression of p-AKT 473 and p TrkB 515
- Relative Protein Expression Anti BDNF (Anti BDNF; A1 5 μM, 6 hrs): 0.67
- Relative Protein Expression Anti BDNF (Anti BDNF; A1 10 μM, 6 hrs): 1.48
- Relative Protein Expression Anti BDNF (Anti BDNF; A1 + Cort., 6 hr): 39.43
- Relative Protein Expression Anti BDNF (Anti BDNF; A1/Cort., A1 5 μM, 6 hrs): 0.44
- Relative Protein Expression Anti BDNF (Anti BDNF; A1/Cort., A1 10 μM, 6 hrs): 1.34
- expression of Anti BDNF (in words) (Anti BDNF; [7]): increased significantly
- viability at 24 h, 5 µM ([2]; RAW264.7, 5 μM): 93.1 ± 1.1%
- viability at 24 h, 10 µM ([2]; RAW264.7, 10 μM): 83.5 ± 0.6%
- cell viability versus control (in words) (TrkB stable cells SHSY5Y): increased cell viability versus control
- viability at 20 µM (TrkB stable cells SHSY5Y; test compound 20 μM + Cort. 400 μM): 97.2 ± 1.13%
- viability at 20 µM (TrkB stable cells SHSY5Y; test compound alone, 20 μM): 110 ± 1.61%
- viability at 1.25 µM ([3]; Homo sapiens, SH-SY5Y, 96 h, A1 1.25 μM + Cort 400 μM, 96 hrs): 83.8%
- viability at 2.5 µM ([3]; Homo sapiens, SH-SY5Y, 96 h, A1 2.5 μM + Cort 400 μM, 96 hrs): 93.6%
- viability at 10 µM ([3]; Homo sapiens, SH-SY5Y, 96 h, A1 10 μM + Cort 400 μM, 96 hrs): 113%
- viability at 20 µM ([3]; Homo sapiens, SH-SY5Y, 96 h, A1 20 μM + Cort 400 μM, 96 hrs): 108%
- viability at 40 µM ([3]; Homo sapiens, SH-SY5Y, 96 h, A1 40 μM + Cort 400 μM, 96 hrs): 102%
- neuroprotection against corticosterone (in words) ([3]; in presence of corticosterone): substantial level of neuroprotection by significantly lowering the corticosterone cytotoxic activity
- % Immobility (sec) ± SD (dead time) (depression mice model [4]; with Cort. 35 μg/ml): 33.05 ± 5.62 s
- % Latency to immobility (sec) ± SD (depression mice model [4]; with Cort. 35 μg/ml): 36.90 ± 14.54 s
- % Immobility (sec) ± SD (dead time) (depression mice model [4]; without Cort.): 28.76 ± 9.01 s and 28.76 ± 9.10 s
- % Latency to immobility (sec) ± SD (depression mice model [4]; without Cort.): 54.35 ± 9.74 s
- increase of sucrose consumption (depression mice model [5]; compared with stressed mice): more than 50%
- % Sucrose consumption (ml) ± SD (depression mice model [5]; with Cort.): 78.02±0.99%
- % Sucrose consumption (ml) ± SD (depression mice model [5]; without Cort.): 83.80±0.80%
- inhibition at 5 µM ([6]; 5 μM): 7.1 ± 0.8%
- inhibition at 10 µM ([6]; 10 μM): 12.3%

Source: patent publication US20260315499A1, “2'- {HETEROCYCLYL (ARYL/ALKYL) METHYL} - CANNABIDIOL COMPOUNDS AND PROCESS FOR PREPARATION THEREOF” (COUNCIL OF SCIENTIFIC & INDUSTRIAL RESEARCH, priority 2023, published 2026)
